{"source": "ChEMBL document CHEMBL5608174", "about": "“Synthesis and biological evaluation of 4-phenyl-5-quinolinyl substituted isoxazole analogues as potent cytotoxic and tubulin polymerization inhibitors against ESCC” (Eur J Med Chem, 2024)", "key": {"Tubulin (Homo sapiens) [1]": {"target": "T1, Tubulin (Homo sapiens) (UniProt P68371+Q9H4B7+P0DPH7+P68366+Q13509+Q71U36+P04350+Q3ZCM7+P07437+P68363+Q9BQE3+Q6PEY2+Q13885+Q9BVA1+Q9BUF5)", "assay": "Inhibition of tubulin polymerization in human KYSE-70 cells assessed as reduction in filamentous microtubule structure formation at 5 to 20 nmol/L incubated for 24 hrs by DAPI staining based fluorescence microscopic analysis", "type": "cell-based", "conditions": "dose 5-20 nmol/L"}, "[2]": {"tested_on": "Esophageal squamous cell carcinoma cell", "assay": "Induction of apoptosis in human Esophageal squamous cell carcinoma cell assessed as increase in cleaved-PARP level at 5 to 20 nmol/L incubated for 48 hrs by Western blot analysis", "type": "functional, cell-based", "conditions": "dose 5-20 nmol/L"}, "Tubulin (Homo sapiens) [3]": {"target": "T1, Tubulin (Homo sapiens)", "assay": "Inhibition of tubulin polymerization in human KYSE-70 cells assessed as multinucleation of cells at 5 to 20 nmol/L incubated for 24 hrs by DAPI staining based fluorescence microscopic analysis", "type": "cell-based", "conditions": "dose 5-20 nmol/L"}, "KYSE-30 [4]": {"tested_on": "KYSE-30", "assay": "Induction of morphological changes in human KYSE-30 cells assessed as deformation at 5 to 20 nmol/L incubated for 48 hrs by Bright field microscopic analysis", "type": "functional, cell-based", "conditions": "dose 5-20 nmol/L"}, "[5]": {"tested_on": "Esophageal squamous cell carcinoma cell", "assay": "Induction of apoptosis in human Esophageal squamous cell carcinoma cell assessed as […] of Bax level at 5 to 20 nmol/L incubated for 48 hrs by Western blot analysis", "type": "functional, cell-based", "conditions": "dose 5-20 nmol/L"}, "KYSE-30 [6]": {"tested_on": "KYSE-30", "assay": "Effect on nuclear replication in human KYSE-30 cells at 5 to 20 nmol/L incubated for 24 hrs by DAPI staining based fluorescence microscopic analysis", "type": "functional, cell-based", "conditions": "dose 5-20 nmol/L"}, "KYSE-70 cell line [7]": {"tested_on": "KYSE-70 cell line", "assay": "Induction of apoptosis in human KYSE-70 cells assessed as early apoptotic cells at 10 nmol/L incubated for 48 hrs by Annexin V-FITC/PI staining based flow cytometry analysis (reference value: 1.78%)", "type": "functional"}, "KYSE-30 [8]": {"tested_on": "KYSE-30", "assay": "Induction of apoptosis in human KYSE-30 cells assessed as viable cells at 20 nmol/L incubated for 48 hrs by Annexin V-FITC/PI staining based flow cytometry analysis (reference value: 88.76 %)", "type": "functional", "conditions": "read-out: Activity"}, "Tubulin (Homo sapiens) [9]": {"target": "T1, Tubulin (Homo sapiens)", "assay": "Inhibition of tubulin polymerization in human KYSE-30 cells assessed as multinucleation of cells at 5 to 20 nmol/L incubated for 24 hrs by DAPI staining based fluorescence microscopic analysis", "type": "cell-based", "conditions": "dose 5-20 nmol/L"}, "KYSE-70 cell line [10]": {"tested_on": "KYSE-70 cell line", "assay": "Induction of apoptosis in human KYSE-70 cells assessed as late apoptotic cells at 5 nmol/L incubated for 48 hrs by Annexin V-FITC/PI staining based flow cytometry analysis (reference value: 3.01%)", "type": "functional"}, "[11]": {"assay": "Toxicity in female BALB/c-nu nude mouse xenografted with human KYSE-30 cells assessed as change in liver pathology at 6 to 12 mg/kg, ip administered for 15 days by H and E staining based analysis", "type": "organism-based", "conditions": "in vivo, 360 h, dose 6-12 mg/kg, time 15 day"}, "KYSE-70 cell line [12]": {"tested_on": "KYSE-70 cell line", "assay": "Effect on nuclear replication in human KYSE-70 cells at 5 to 20 nmol/L incubated for 24 hrs by DAPI staining based fluorescence microscopic analysis", "type": "functional, cell-based", "conditions": "dose 5-20 nmol/L"}, "[13]": {"assay": "Toxicity in female BALB/c-nu nude mouse xenografted with human KYSE-30 cells assessed as effect on serum uric acid level at 6 to 12 mg/kg, ip administered for 15 days by biochemical analysis", "type": "organism-based", "conditions": "in vivo, 360 h, dose 6-12 mg/kg, time 15 day"}, "KYSE-30 [14]": {"tested_on": "KYSE-30", "assay": "Induction of morphological changes in human KYSE-30 cells assessed as fragmentation at 5 to 20 nmol/L incubated for 48 hrs by Bright field microscopic analysis", "type": "functional, cell-based", "conditions": "dose 5-20 nmol/L"}, "KYSE-30 [15]": {"tested_on": "KYSE-30", "assay": "Induction of apoptosis in human KYSE-30 cells assessed as early apoptotic cells at 20 nmol/L incubated for 48 hrs by Annexin V-FITC/PI staining based flow cytometry analysis (reference value: 4.38 %)", "type": "functional"}, "[16]": {"tested_on": "Esophageal squamous cell carcinoma cell", "assay": "Induction of apoptosis in human Esophageal squamous cell carcinoma cell assessed as increase in caspase-7 activation at 5 to 20 nmol/L incubated for 48 hrs by Western blot analysis", "type": "functional, cell-based", "conditions": "dose 5-20 nmol/L"}, "[17]": {"assay": "Cytotoxicity against HUVEC cells assessed as inhibition of cell growth incubated for 48 hrs by MTT assay", "type": "toxicity, cell-based", "conditions": "human"}, "KYSE-30 [18]": {"tested_on": "KYSE-30", "assay": "Induction of apoptosis in human KYSE-30 cells assessed as necrotic cells at 20 nmol/L incubated for 48 hrs by Annexin V-FITC/PI staining based flow cytometry analysis (reference value: 1.59 %)", "type": "functional"}, "KYSE-30 [19]": {"tested_on": "KYSE-30", "assay": "Induction of apoptosis in human KYSE-30 cells assessed as early apoptotic cells at 5 nmol/L incubated for 48 hrs by Annexin V-FITC/PI staining based flow cytometry analysis (reference value: 4.38 %)", "type": "functional"}, "KYSE-30 [20]": {"tested_on": "KYSE-30", "assay": "Induction of apoptosis in human KYSE-30 cells assessed as late apoptotic cells at 20 nmol/L incubated for 48 hrs by Annexin V-FITC/PI staining based flow cytometry analysis (reference value: 5.27 %)", "type": "functional"}, "KYSE-30 [21]": {"tested_on": "KYSE-30", "assay": "Induction of cell cycle arrest in human KYSE-30 cells assessed as accumulation of cells at G2/M phase at 10 nmol/L by PI staining based flow cytometric analysis", "type": "functional"}, "[22]": {"assay": "Toxicity in female BALB/c-nu nude mouse xenografted with human KYSE-30 cells assessed as change in lung pathology at 6 to 12 mg/kg, ip administered for 15 days by H and E staining based analysis", "type": "organism-based", "conditions": "in vivo, 360 h, dose 6-12 mg/kg, time 15 day"}, "[23]": {"tested_on": "Esophageal squamous cell carcinoma cell", "assay": "Induction of apoptosis in human Esophageal squamous cell carcinoma cell assessed as increase in caspase-9 activation at 5 to 20 nmol/L incubated for 48 hrs by Western blot analysis", "type": "functional, cell-based", "conditions": "dose 5-20 nmol/L"}, "KYSE-30 [24]": {"tested_on": "KYSE-30", "assay": "Antitumor activity against human KYSE-30 cells xenografted in female BALB/c-nu nude mouse assessed as reduction in tumor volume at 6 to 12 mg/kg, ip administered daily for 15 days", "type": "functional, organism-based", "conditions": "dose 6-12 mg/kg, time 15.0 day"}, "KYSE-70 cell line [25]": {"tested_on": "KYSE-70 cell line", "assay": "Induction of apoptosis in human KYSE-70 cells assessed as late apoptotic cells at 20 nmol/L incubated for 48 hrs by Annexin V-FITC/PI staining based flow cytometry analysis (reference value: 3.01%)", "type": "functional"}, "Sus scrofa": {"species": "Sus scrofa", "assay": "Inhibition of porcine brain tubulin polymerization measured every 30 secs for 120 times in the presence of GTP by fluorescence based assay", "conditions": "time 60.0 min"}, "Tubulin (Homo sapiens) [26]": {"target": "T1, Tubulin (Homo sapiens)", "assay": "Inhibition of tubulin polymerization in human KYSE-70 cells assessed as effect on mitotic phase at 5 to 20 nmol/L incubated for 24 hrs by DAPI staining based fluorescence microscopic analysis", "type": "cell-based", "conditions": "dose 5-20 nmol/L"}, "KYSE-30 [27]": {"tested_on": "KYSE-30", "assay": "Induction of morphological changes in human KYSE-30 cells assessed as decrease in cell density at 5 to 20 nmol/L incubated for 48 hrs by Calcein AM/PI staining based inverted fluorescence microscopic analysis", "type": "functional", "conditions": "dose 5-20 nmol/L"}, "KYSE-70 cell line [28]": {"tested_on": "KYSE-70 cell line", "assay": "Induction of apoptosis in human KYSE-70 cells assessed as early apoptotic cells at 5 nmol/L incubated for 48 hrs by Annexin V-FITC/PI staining based flow cytometry analysis (reference value: 1.78%)", "type": "functional"}, "[29]": {"tested_on": "Esophageal squamous cell carcinoma cell", "assay": "Induction of apoptosis in human Esophageal squamous cell carcinoma cell assessed as increase in caspase-3 activation at 5 to 20 nmol/L incubated for 48 hrs by Western blot analysis", "type": "functional, cell-based", "conditions": "dose 5-20 nmol/L"}, "Tubulin (Homo sapiens) [30]": {"target": "T1, Tubulin (Homo sapiens)", "assay": "Inhibition of tubulin polymerization in human KYSE-30 cells assessed as effect on mitotic phase at 5 to 20 nmol/L incubated for 24 hrs by DAPI staining based fluorescence microscopic analysis", "type": "cell-based", "conditions": "dose 5-20 nmol/L"}, "KYSE-70 cell line [31]": {"tested_on": "KYSE-70 cell line", "assay": "Inhibition of human KYSE-70 cells proliferation at 5 to 20 nmol/L incubated for 48 hrs by real time cellular analysis", "type": "functional, cell-based", "conditions": "dose 5-20 nmol/L"}, "MGC-803": {"tested_on": "MGC-803", "assay": "Antiproliferative activity against human MGC-803 cells assessed as inhibition of cell proliferation incubated for 48 hrs by MTT assay", "type": "functional, cell-based", "conditions": "MGC-803, 48 h"}}, "note": "Calls of active or inactive are those of the source. No cut-off for these calls is given here."}
{"smiles": "COc1ccc(-c2cnoc2-c2cc(C)nc3ccccc23)cc1", "values": [{"measurement": "inhibition", "setting": "Tubulin (Homo sapiens) [1]", "result": "Active"}, {"measurement": "Activity", "setting": "[2]", "result": "Active"}, {"measurement": "inhibition", "setting": "Tubulin (Homo sapiens) [3]", "result": "Active"}, {"measurement": "Activity", "setting": "KYSE-30 [4]", "result": "Active"}, {"measurement": "Activity", "setting": "[5]", "result": "Active"}, {"measurement": "Activity", "setting": "KYSE-30 [6]", "result": "inactive"}, {"measurement": "Activity", "setting": "KYSE-70 cell line [7]", "result": 28.93, "unit": "%"}, {"measurement": "viability at 0.02 µM", "setting": "KYSE-30 [8]", "result": 38.9, "unit": "%"}, {"measurement": "inhibition", "setting": "Tubulin (Homo sapiens) [9]", "result": "Active"}, {"measurement": "Activity", "setting": "KYSE-70 cell line [10]", "result": 6.21, "unit": "%"}, {"measurement": "Activity", "setting": "[11]", "result": "Non-Toxic"}, {"measurement": "Activity", "setting": "KYSE-70 cell line [12]", "result": "inactive"}, {"measurement": "Activity", "setting": "[13]", "result": "Non-Toxic"}, {"measurement": "Activity", "setting": "KYSE-30 [14]", "result": "Active"}, {"measurement": "Activity", "setting": "KYSE-30 [15]", "result": 47.76, "unit": "%"}, {"measurement": "Activity", "setting": "[16]", "result": "Active"}, {"measurement": "IC50 at 48 h", "setting": "[17]", "result": "> 0.71", "unit": "µM"}, {"measurement": "Activity", "setting": "KYSE-30 [18]", "result": 3.2, "unit": "%"}, {"measurement": "Activity", "setting": "KYSE-30 [19]", "result": 46.64, "unit": "%"}, {"measurement": "Activity", "setting": "KYSE-30 [20]", "result": 10.13, "unit": "%"}, {"measurement": "Activity", "setting": "KYSE-30 [21]", "result": "Active"}, {"measurement": "Activity", "setting": "[22]", "result": "Non-Toxic"}, {"measurement": "Activity", "setting": "[23]", "result": "Active"}, {"measurement": "Activity", "setting": "KYSE-30 [24]", "result": "Active"}, {"measurement": "Activity", "setting": "KYSE-70 cell line [25]", "result": 17.48, "unit": "%"}, {"measurement": "inhibition", "setting": "Sus scrofa", "result": "Active"}, {"measurement": "inhibition", "setting": "Tubulin (Homo sapiens) [26]", "result": "Active"}, {"measurement": "Activity", "setting": "KYSE-30 [27]", "result": "Active"}, {"measurement": "Activity", "setting": "KYSE-70 cell line [28]", "result": 8.24, "unit": "%"}, {"measurement": "Activity", "setting": "[29]", "result": "Active"}, {"measurement": "inhibition", "setting": "Tubulin (Homo sapiens) [30]", "result": "Active"}, {"measurement": "inhibition", "setting": "KYSE-70 cell line [31]", "result": "Active"}, {"measurement": "IC50", "setting": "MGC-803", "result": 0.014, "unit": "µM"}]}
